Results as given in paper PMC9574050, “Design, synthesis, and insecticidal activity of a novel series of flupyrimin analogs bearing 1-aryl-1H-pyrazol-4-yl subunits” (Frontiers in Chemistry, 2022).

Legend:
Format in all cases: in vivo
[1] = system: Helicoverpa armigera; assay: Insecticidal activity against Helicoverpa armigera (soaking method); conditions: Helicoverpa armigera, 48 h; 400 μg/mL; 2nd instar larvae; counted 2 days later; read-out: Mortality rate (%) H. armigera
Description: (§1) Preparation of test agent. Dissolve accurately weighed tested compound in DMF to prepare 1% mother liquor, and then dilute it with distilled water containing 0.1% Tween-80 to corresponding concentrations for later use.
Insecticidal activity against Helicoverpa armigera. The soaking method was adopted ([Yang et al., 2022]). After soaking a proper amount of corn leaves for 10 s, they were placed in a plastic Petri dish with filter paper and dried naturally in the shade. Ten larvae of the 2nd instar H. armigera were attached to each dish and placed in an observation room at 26°C with light (16/8 h). The result was counted 2 days later, and the no-response insect body when it was lightly touched with a brush was regarded as dead. Each treatment was repeated 3 times, and DMF without the tested compound was used as a blank control.
(§2) The insecticidal activities of the test compounds against the abovementioned five insects were calculated by the following formula: P1=(K/N)×100, (1) P2=(Pt−P0)/(1−P0)×100, (2) where P1 is the mortality rate; K is the dead insect number; N is the total number of experimental insects; P2 is the corrected mortality rate; Pt is the mortality rate of treatment; P0 is the mortality rate of CK. If the mortality rate of CK is less than 5%, without the required correction, and if the mortality rate of CK is between 5 and 20%, P2 should be calculated according to formula II.

[2] = system: Nilaparvata lugens; assay: Insecticidal activity against Nilaparvata lugens (Potter spray tower); conditions: 24 h, 3rd instar nymphae, 1 day after treatment, read-out: Mortality rate (%) N. lugens; for mortality at 400 µg/mL: 400 μg/mL
Description: as §1
Insecticidal activity against Nilaparvata lugens ([Ghareeb et al., 2021]). The seedlings with two leaves and one heart were placed in a Petri dish with a bottom diameter of 3 cm and covered with white sand. After the 3rd instar nymphae of N. lugens were stunned by CO2, about 15 nymphae were received in each dish, and then 2.5 ml of the tested agent was sprayed with Potter spray tower. The mortality of N. lugens was investigated 1 day after the treatment. Each treatment was repeated three times, and DMF without the tested compound was used as a blank control.
as §2

[3] = system: Plutella xylostella; assay: Insecticidal activity against Plutella xylostella (soaking method); conditions: Plutella xylostella, 48 h, 2nd instar larvae, counted 2 days later, read-out: Mortality rate (%) P. xylostella; for mortality at 25 µg/mL: 25 μg/mL; for mortality at 100 µg/mL: 100 μg/mL; for mortality at 400 µg/mL: 400 μg/mL
Description: as §1
Insecticidal activity against Plutella xylostella ([Yang et al., 2021]). The soaking method was adopted. After soaking a proper amount of radish leaves for 10 s, it was placed in a plastic Petri dish with filter paper and dried naturally in the shade. Each dish was inoculated with 10 2nd instar P. xylostella larvae and placed in an observation room at 22°C with light (16/8 h). The result was counted 2 days later, and the no-response insect body when it was lightly touched with a brush was regarded as dead. Each treatment was repeated three times, and DMF without the tested compound was used as a blank control.
as §2

[4] = system: Chilo suppressalis; assay: Insecticidal activity against Chilo suppressalis (soaking method); conditions: 96 h, 400 μg/mL, 3rd instar larvae, counted 4 days later, read-out: Mortality rate (%) C. suppressalis
Description: as §1
Insecticidal activity against Chilo suppressalis ([Huang et al., 2022]). The soaking method was adopted. The Zizania latifolia slices were soaked in a tested solution for 10 s, then taken out, and placed in a plastic Petri dish with filter paper to naturally dry in the shade. […] The result was counted 4 days later, and the no-response insect body when it was lightly touched with a brush was regarded as dead. Each treatment was repeated three times, and DMF without the tested compound was used as a blank control.
as §2

[5] = system: Aphis craccivora; assay: Insecticidal activity against Aphis craccivora (Potter spray tower); conditions: 400 μg/mL, counted 24 h later, read-out: Mortality rate (%) A. craccivora
Protocol: as §1
Insecticidal activity against Aphis craccivora ([Liu et al., 2022]). About 30 nymphs of alfalfa aphid were placed on a horsebean leaf dish, and then 2.5 ml of the tested agent was sprayed with Potter spray tower. After treatment, they were cultured in an observation room at 20–22°C. The result was counted 24 h later, and the no-response insect body when it was lightly touched with tweezers was regarded as dead. Each treatment was repeated three times, and DMF without the tested compound was used as a blank control.
as §2

Row | SMILES | mortality at 400 µg/mL [1] [%] | mortality at 400 µg/mL [2] [%] | mortality at 25 µg/mL [3] [%] | mortality at 100 µg/mL [3] [%] | mortality at 400 µg/mL [3] [%] | mortality at 400 µg/mL [4] [%] | mortality at 400 µg/mL [5] [%] | mortality at 100 µg/mL ([2]; 100 μg/mL) [%]
1 | COCC(=O)/N=c1\ccccn1Cc1cnn(-c2cccc(Cl)c2)c1C(F)F [Compound B6, (E)-N-(1-((1-(3-chlorophenyl)-5-(difluoromethyl)-1H-pyrazol-4-yl)methyl)pyridin-2(1H)-ylidene)-2-methoxyacetamide] | 0 | 0 | 0 | 83.3 | 100 | 0 | 0 | 
2 | COCC(=O)/N=c1\ccccn1Cc1cnn(-c2cccc(F)c2)c1C(F)F [Compound B7, (E)-N-(1-((5-(difluoromethyl)-1-(3-fluorophenyl)-1H-pyrazol-4-yl)methyl)pyridin-2(1H)-ylidene)-2-methoxyacetamide] | 0 | 0 |  |  | 66.7 | 0 | 0 | 
3 | COCC(=O)/N=c1\ccccn1Cc1cnn(-c2ccc(F)cc2)c1C(F)F [Compound B8, (E)-N-(1-((5-(difluoromethyl)-1-(4-fluorophenyl)-1H-pyrazol-4-yl)methyl)pyridin-2(1H)-ylidene)-2-methoxyacetamide] | 0 | 0 |  |  | 56.7 | 0 | 0 | 
4 | O=C(/N=c1\ccccn1Cc1cnn(-c2ccccc2)c1C(F)(F)F)C(F)(F)C(F)(F)F [Compound C1, (E)-2,2,3,3,3-pentafluoro-N-(1-((1-phenyl-5-(trifluoromethyl)-1H-pyrazol-4-yl)methyl)pyridin-2(1H)-ylidene)propanamide] | 0 | 0 |  |  | 0 | 0 | 0 | 
5 | O=C(/N=c1\ccccn1Cc1cnn(-c2ccccc2Cl)c1C(F)(F)F)C(F)(F)C(F)(F)F [Compound C2, (E)-N-(1-((1-(2-chlorophenyl)-5-(trifluoromethyl)-1H-pyrazol-4-yl)methyl)pyridin-2(1H)-ylidene)-2,2,3,3,3-pentafluoropropanamide] | 0 | 0 |  |  | 0 | 0 | 0 | 
6 | O=C(/N=c1\ccccn1Cc1cnn(-c2cccc(F)c2)c1C(F)(F)F)C(F)(F)C(F)(F)F [Compound C3, (E)-2,2,3,3,3-pentafluoro-N-(1-((1-(3-fluorophenyl)-5-(trifluoromethyl)-1H-pyrazol-4-yl)methyl)pyridin-2(1H)-ylidene)propanamide] | 0 | 0 |  |  | 76.7 | 0 | 0 | 
7 | O=C(/N=c1\ccccn1Cc1cnn(-c2ccc(Cl)cc2)c1C(F)(F)F)C(F)(F)C(F)(F)F [Compound C4, (E)-N-(1-((1-(4-chlorophenyl)-5-(trifluoromethyl)-1H-pyrazol-4-yl)methyl)pyridin-2(1H)-ylidene)-2,2,3,3,3-pentafluoropropanamide] | 0 | 0 |  |  | 73.3 | 0 | 0 | 
8 | O=C(/N=c1\ccccn1Cc1cnn(-c2cccc(Cl)c2)c1C(F)F)C(F)(F)C(F)(F)F [Compound C6, (E)-N-(1-((1-(3-chlorophenyl)-5-(difluoromethyl)-1H-pyrazol-4-yl)methyl)pyridin-2(1H)-ylidene)-2,2,3,3,3-pentafluoropropanamide] | 0 | 0 |  |  | 60 | 0 | 0 | 
9 | O=C(/N=c1\ccccn1Cc1cnn(-c2cccc(F)c2)c1C(F)F)C(F)(F)C(F)(F)F [Compound C7, (E)-N-(1-((5-(difluoromethyl)-1-(3-fluorophenyl)-1H-pyrazol-4-yl)methyl)pyridin-2(1H)-ylidene)-2,2,3,3,3-pentafluoropropanamide] | 0 | 0 |  |  | 66.7 | 40 | 0 | 
10 | Cn1cc(C(=O)/N=c2\ccccn2Cc2cnn(-c3ccccc3)c2C(F)(F)F)c(C(F)F)n1 [Compound D1, (E)-3-(difluoromethyl)-1-methyl-N-(1-((1-phenyl-5-(trifluoromethyl)-1H-pyrazol-4-yl)methyl)pyridin-2(1H)-ylidene)-1H-pyrazole-4-carboxamide] | 0 | 0 |  |  | 46.7 | 0 | 0 | 
11 | Cn1cc(C(=O)/N=c2\ccccn2Cc2cnn(-c3ccccc3Cl)c2C(F)(F)F)c(C(F)F)n1 [Compound D2, (E)-N-(1-((1-(2-chlorophenyl)-5-(trifluoromethyl)-1H-pyrazol-4-yl)methyl)pyridin-2(1H)-ylidene)-3-(difluoromethyl)-1-methyl-1H-pyrazole-4-carboxamide] | 0 | 0 |  |  | 43.3 | 0 | 0 | 
12 | Cn1cc(C(=O)/N=c2\ccccn2Cc2cnn(-c3cccc(F)c3)c2C(F)(F)F)c(C(F)F)n1 [Compound D3, (E)-3-(difluoromethyl)-N-(1-((1-(3-fluorophenyl)-5-(trifluoromethyl)-1H-pyrazol-4-yl)methyl)pyridin-2(1H)-ylidene)-1-methyl-1H-pyrazole-4-carboxamide] | 0 | 100 |  |  | 63.3 | 0 | 0 | 0
13 | Cn1cc(C(=O)/N=c2\ccccn2Cc2cnn(-c3ccc(Cl)cc3)c2C(F)(F)F)c(C(F)F)n1 [Compound D4, (E)-N-(1-((1-(4-chlorophenyl)-5-(trifluoromethyl)-1H-pyrazol-4-yl)methyl)pyridin-2(1H)-ylidene)-3-(difluoromethyl)-1-methyl-1H-pyrazole-4-carboxamide] | 0 | 0 | 6.7 | 60 | 100 | 0 | 0 | 
14 | Cn1cc(C(=O)/N=c2\ccccn2Cc2cnn(-c3ccc(C(F)(F)F)cc3)c2C(F)(F)F)c(C(F)F)n1 [Compound D5, (E)-3-(difluoromethyl)-1-methyl-N-(1-((5-(trifluoromethyl)-1-(4-(trifluoromethyl)phenyl)-1H-pyrazol-4-yl)methyl)pyridin-2(1H)-ylidene)-1H-pyrazole-4-carboxamide] | 0 | 0 |  |  | 63.3 | 0 | 0 | 
